Data reported in PubChem BioAssay AID256 (DTP/NCI, 2004).
Where “and” joins values, the source holds several entries; their conditions need not be identical. Identical values can stand only once. Inconclusive results and toxic doses are left out. Rule for the calls: active = survival T/C of 150% or more; inactive = T/C below 125% in these data.

System: CD2F1 mice, L1210 leukemia ip, survival T/C
Assay: NCI In Vivo Anticancer Drug Screen. Data for tumor model L1210 Leukemia (intraperitoneal) in CD2F1 (CDF1) mice
Conditions: higher = longer survival
How it was run: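 Activity against a transplanted murine tumor was judged by comparing the compound group with a vehicle group. The outcome in the treated animals was divided by that in the controls.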

[1] = endpoint: mean survival time, dose: 100.0 mg/kg/injection, schedule: Q04DX003 (ip), vehicle: saline
[2] = endpoint: mean survival time, dose: 200.0 mg/kg/injection, schedule: Q04DX003 (ip), vehicle: saline
[3] = endpoint: mean survival time, dose: 400.0 mg/kg/injection, schedule: Q04DX003 (ip), vehicle: saline
[4] = endpoint: mean survival time, dose: 100.0 mg/kg/injection, schedule: Q01DX001 (ip), vehicle: saline with Tween-80
[5] = endpoint: mean survival time, dose: 200.0 mg/kg/injection, schedule: Q01DX001 (ip), vehicle: saline with Tween-80
[6] = endpoint: mean survival time, dose: 400.0 mg/kg/injection, schedule: Q01DX001 (ip), vehicle: saline with Tween-80
[7] = endpoint: mean survival time, dose: 100.0 mg/kg/injection, schedule: Q04DX003 (ip), vehicle: saline with Tween-80
[8] = endpoint: mean survival time, dose: 200.0 mg/kg/injection, schedule: Q04DX003 (ip), vehicle: saline with Tween-80
[9] = endpoint: mean survival time, dose: 400.0 mg/kg/injection, schedule: Q04DX003 (ip), vehicle: saline with Tween-80
[10] = endpoint: mean survival time, dose: 100.0 mg/kg/injection, schedule: Q01DX009 (ip), vehicle: saline with Tween-80
[11] = endpoint: mean survival time, dose: 200.0 mg/kg/injection, schedule: Q01DX009 (ip), vehicle: saline with Tween-80
[12] = endpoint: mean survival time, dose: 100.0 mg/kg/injection, schedule: Q04DX002 (ip), vehicle: saline with Tween-80

Measured: T/C

c1ccc(CCSc2ncnc3nc[nH]c23)cc1
inactive: endpoint: mean survival time, dose: 100.0 mg/kg/injection, schedule: Q01DX007 (ip), vehicle: saline 103 % of control | endpoint: mean survival time, dose: 100.0 mg/kg/injection, schedule: Q01DX009 (ip), vehicle: saline 122 % of control | endpoint: mean survival time, dose: 100.0 mg/kg/injection, schedule: Q03DX003 (ip), vehicle: saline 96 % of control | [1] 98 % of control | endpoint: mean survival time, dose: 200.0 mg/kg/injection, schedule: Q01DX007 (ip), vehicle: saline 111 % of control | endpoint: mean survival time, dose: 200.0 mg/kg/injection, schedule: Q01DX009 (ip), vehicle: saline 113 % of control | endpoint: mean survival time, dose: 200.0 mg/kg/injection, schedule: Q03DX003 (ip), vehicle: saline 102 % of control | [2] 103 % of control | endpoint: mean survival time, dose: 400.0 mg/kg/injection, schedule: Q01DX007 (ip), vehicle: saline 120 % of control | endpoint: mean survival time, dose: 400.0 mg/kg/injection, schedule: Q01DX009 (ip), vehicle: saline 124 % of control | endpoint: mean survival time, dose: 400.0 mg/kg/injection, schedule: Q03DX003 (ip), vehicle: saline 106 % of control | [3] 106 % of control

CSCCSC
inactive: [4] 104 % of control | [5] 98 % of control | [6] 96 % of control

CC1CCCCC1C(C)(C#N)Nc1ccccc1 (centres undefined)
inactive: [7] 103 % of control | [8] 104 % of control | [9] 97 % of control

Cc1ccccc1CS
inactive: [10] 93 % of control | [7] 103 % of control | [11] 94 % of control | [8] 100 % of control | [9] 104 % of control

CN(C)CCP(=O)(O)O
inactive: [1] 101 % of control | [2] 98 % of control | [3] 98 % of control

CC(C)(C)OC(=O)C(CCC(=O)O)NC(=O)OCc1ccccc1 (centres undefined)
inactive: [7] 99 % of control | [8] 97 % of control | [9] 100 % of control

NC(CC[Se]Cc1ccccc1)C(=O)O (centres undefined)
inactive: endpoint: mean survival time, dose: 6.25 mg/kg/injection, schedule: Q01DX009 (ip), vehicle: saline with Tween-80 92 % of control | endpoint: mean survival time, dose: 12.5 mg/kg/injection, schedule: Q01DX009 (ip), vehicle: saline with Tween-80 92 % of control | endpoint: mean survival time, dose: 25.0 mg/kg/injection, schedule: Q01DX009 (ip), vehicle: saline with Tween-80 92 % of control | [7] 90 % of control | [8] 86 % of control

O=C(CCCC1CCCCC1)Cc1ccccc1
inactive: endpoint: mean survival time, dose: 100.0 mg/kg/injection, schedule: Q04DX003 (ip), vehicle: acetone 96 % of control | endpoint: mean survival time, dose: 200.0 mg/kg/injection, schedule: Q04DX003 (ip), vehicle: acetone 94 % of control | endpoint: mean survival time, dose: 400.0 mg/kg/injection, schedule: Q04DX003 (ip), vehicle: acetone 102 % of control

CCOC(=O)Nc1cc2c(c(N)n1)N=C(c1ccccc1)CN2
inactive: endpoint: median survival time, dose: 0.63 mg/kg/injection, schedule: Q01DX009 (ip), vehicle: saline with Tween-80 118 % of control and 101 % of control | endpoint: median survival time, dose: 0.75 mg/kg/injection, schedule: Q01DX009 (ip), vehicle: saline with Tween-80 106 % of control

COC(=O)C(NC(=O)CCNC(=O)OCc1ccccc1)C(C)C (centres undefined)
inactive: [10] 95 % of control | [11] 101 % of control

O=C(/C=C/c1ccccc1)NC1CC1
inactive: [4] 94 % of control | [5] 89 % of control | [6] 93 % of control

CCOC(=O)C(N)Cc1ccc(O)cc1 (centres undefined)
inactive: endpoint: mean survival time, dose: 100.0 mg/kg/injection, schedule: Q04DX003 (ip), vehicle: other 102 % of control | endpoint: mean survival time, dose: 200.0 mg/kg/injection, schedule: Q04DX003 (ip), vehicle: other 100 % of control | endpoint: mean survival time, dose: 400.0 mg/kg/injection, schedule: Q04DX003 (ip), vehicle: other 97 % of control

COc1cc(-c2nc(-c3ccc(N=Cc4ccc(N(CCCOS(C)(=O)=O)CCCOS(C)(=O)=O)cc4)cc3)cs2)ccc1OCc1ccccc1
inactive: [4] 91 % of control | [5] 95 % of control | [11] 86 % of control | [6] 89 % of control

CC(=O)CC(=O)C(F)(F)F.CC(=O)CC(=O)C(F)(F)F.CC(=O)CC(=O)C(F)(F)F.[Sm]
inactive: [7] 95 % of control | [8] 100 % of control | [9] 100 % of control

CC(O)CC1CCCC(C)N1 (centres undefined)
inactive: endpoint: mean survival time, dose: 50.0 mg/kg/injection, schedule: Q04DX003 (ip), vehicle: saline with Tween-80 90 % of control and 100 % of control | [4] 101 % of control | [12] 100 % of control and 106 % of control | [7] 100 % of control and 101 % of control | [5] 101 % of control | endpoint: mean survival time, dose: 200.0 mg/kg/injection, schedule: Q04DX002 (ip), vehicle: saline with Tween-80 98 % of control and 100 % of control | [8] 93 % of control and 100 % of control

CN(C)C(=S)Oc1ccc(S(=O)(=O)F)c(Cl)c1Cl
inactive: [12] 87 % of control | endpoint: mean survival time, dose: 400.0 mg/kg/injection, schedule: Q04DX002 (ip), vehicle: saline with Tween-80 87 % of control

CNC(=O)c1ccc2ccccc2c1
inactive: endpoint: mean survival time, dose: 50.0 mg/kg/injection, schedule: Q01DX001 (ip), vehicle: saline 106 % of control | endpoint: mean survival time, dose: 100.0 mg/kg/injection, schedule: Q01DX001 (ip), vehicle: saline 95 % of control | endpoint: mean survival time, dose: 200.0 mg/kg/injection, schedule: Q01DX001 (ip), vehicle: saline 93 % of control | endpoint: mean survival time, dose: 400.0 mg/kg/injection, schedule: Q01DX001 (ip), vehicle: saline 95 % of control

FC(F)(F)S.[Hg]
inactive: endpoint: mean survival time, dose: 5.0 mg/kg/injection, schedule: Q04DX003 (ip), vehicle: saline 101 % of control | endpoint: mean survival time, dose: 10.0 mg/kg/injection, schedule: Q04DX003 (ip), vehicle: saline 97 % of control | endpoint: mean survival time, dose: 20.0 mg/kg/injection, schedule: Q04DX003 (ip), vehicle: saline 95 % of control

O=C(N/N=C/Cc1ccccc1)c1cc2ccccc2cc1O
inactive: [10] 101 % of control | [11] 95 % of control | endpoint: mean survival time, dose: 400.0 mg/kg/injection, schedule: Q01DX009 (ip), vehicle: saline with Tween-80 108 % of control

CO[C@@]12[C@@H]3N[C@@H]3CN1C1=C(C(=O)C(Nc3ccc(S)cc3)=C(C)C1=O)[C@@H]2COC(N)=O
inactive: endpoint: mean survival time, dose: 1.5 mg/kg/injection, schedule: Q01DX001 (ip), vehicle: water 108 % of control | endpoint: mean survival time, dose: 3.0 mg/kg/injection, schedule: Q01DX001 (ip), vehicle: water 104 % of control | endpoint: mean survival time, dose: 6.0 mg/kg/injection, schedule: Q01DX001 (ip), vehicle: water 97 % of control | endpoint: mean survival time, dose: 12.0 mg/kg/injection, schedule: Q01DX001 (ip), vehicle: water 98 % of control | endpoint: mean survival time, dose: 16.7 mg/kg/injection, schedule: Q01DX001 (ip), vehicle: distilled water + Tween-80 92 % of control | endpoint: mean survival time, dose: 24.0 mg/kg/injection, schedule: Q01DX001 (ip), vehicle: distilled water + Tween-80 102 % of control | endpoint: mean survival time, dose: 24.0 mg/kg/injection, schedule: Q01DX001 (ip), vehicle: water 98 % of control | endpoint: mean survival time, dose: 34.2 mg/kg/injection, schedule: Q01DX001 (ip), vehicle: distilled water + Tween-80 104 % of control | endpoint: mean survival time, dose: 48.9 mg/kg/injection, schedule: Q01DX001 (ip), vehicle: distilled water + Tween-80 96 % of control

O=C(NC(=S)Nc1ccccc1C(=O)O)c1ccccc1
inactive: endpoint: mean survival time, dose: 66.0 mg/kg/injection, schedule: Q01DX009 (ip), vehicle: saline sonified 103 % of control | endpoint: mean survival time, dose: 100.0 mg/kg/injection, schedule: Q01DX009 (ip), vehicle: saline sonified 103 % of control | endpoint: mean survival time, dose: 150.0 mg/kg/injection, schedule: Q01DX009 (ip), vehicle: saline sonified 103 % of control

ClCc1c2ccccc2cc2ccccc12
inactive: endpoint: mean survival time, dose: 25.0 mg/kg/injection, schedule: Q04DX002 (ip), vehicle: saline with Tween-80 104 % of control

Cc1cc(O)c(N=Nc2ccc(Br)cc2)cc1C
inactive: endpoint: mean survival time, dose: 50.0 mg/kg/injection, schedule: Q01DX009 (ip), vehicle: saline with Tween-80 97 % of control | [10] 93 % of control | [11] 97 % of control
